The NIST ThermoML archive (doi:10.1016/j.tca.2016.06.015)

Experiment: molar heat capacity at constant pressure
Details: Liquid, Flow calorimetry

CCCCCCCCCC [decane]
4000 kPa
Details | molar heat capacity at constant pressure [J/K/mol]
305.7 K | 293.1
316.2 K | 305.91
326.5 K | 304.48
335.3 K | 315.87
344 K | 324.4
354.1 K | 322.98
366.8 K | 327.25
377.6 K | 340.05
389.8 K | 335.78
401.5 K | 344.32
423.6 K | 361.4
432.6 K | 367.09
443.4 K | 372.78
453.9 K | 377.05
463.9 K | 389.85
475.4 K | 396.97
486.6 K | 419.73
496 K | 414.04
504.1 K | 432.54
516.7 K | 415.46
528.9 K | 424
539.4 K | 433.96
551.9 K | 453.88
564.4 K | 453.88
574.2 K | 470.95
584.4 K | 488.03
595.2 K | 507.95
603.1 K | 513.64
608.6 K | 486.6
614.1 K | 497.99

O [water]
3000 kPa
Details | molar heat capacity at constant pressure [J/K/mol]
305.9 K | 77.29
315.6 K | 72.96
325.4 K | 73.14
335.8 K | 76.56
345.8 K | 74.58
354 K | 78.01
366.2 K | 74.22
381.2 K | 77.65
394.4 K | 74.58
407.3 K | 76.2
419.9 K | 76.38
433.9 K | 76.02
